{
  "source": "patent US8329918B2",
  "about": "“Selective alpha 2B/2C agonists” (priority 2009, dated 2012)",
  "key": {"[1]": {"tested_on": "diabetic patient with moderate neuropathy in the right leg", "experiment": "Treating diabetic peripheral neuropathy in a patient", "type": "in vivo", "settings": "topical composition on the right leg twice daily; two months later", "description": "A topical composition including N-(2-methoxybenzyl)-4,5-dihydrooxazol-2-amine is administered on the right leg of the patient twice daily.\nIII. […] A topical composition including N-(2-methoxybenzyl)-4,5-dyhydrothizaol-2-amine is administered on the right leg of the patient twice daily.\nIII. […] A topical composition including N-(3-chloro-2-fluorobenzyl)-4,5-dihydrooxazol-2-amine is administered on the right leg of the patient twice daily."}, "[2]": {"tested_on": "patient with moderate intraocular pressure in the right eye", "experiment": "Treating elevated intraocular pressure in a patient", "type": "in vivo", "settings": "ophthalmic composition to the right eye twice daily; two months later", "text": "An ophthalmic composition including N-(2-methoxybenzyl)-4,5-dihydrooxazol-2-amine is delivered to the right eye of the patient twice daily.\nII. […] An ophthalmic composition including N-(2-methoxybenzyl)-4,5-dyhydrothizaol-2-amine is delivered to the right eye of the patient twice daily.\nIII. […] An ophthalmic composition including N-(3-chloro-2-fluorobenzyl)-4,5-dihydrooxazol-2-amine is delivered to the right eye of the patient twice daily."}, "[3]": {"tested_on": "patient with moderate post-herpetic neuralgia pain", "experiment": "Treating post-herpetic neuralgia pain in a patient", "type": "in vivo", "settings": "tablet twice daily as needed", "text": "A tablet including N-(2-methoxybenzyl)-4,5-dihydrooxazol-2-amine is delivered taken by the patient twice daily as needed for the pain.\nII. […] A tablet including N-(2-methoxybenzyl)-4,5-dyhydrothizaol-2-amine is delivered taken by the patient twice daily as needed for the pain.\nIII. […] A tablet including N-(3-chloro-2-fluorobenzyl)-4,5-dihydrooxazol-2-amine is delivered taken by the patient twice daily as needed for the pain."}, "alpha2C receptor": {"molecular_target": "T1, alpha2C receptor (Homo sapiens, UniProt P18825)", "T1 construct": "expressed in transfected cells; host or cells: NIH-3T3", "T1 sequence (P18825 1-462)": "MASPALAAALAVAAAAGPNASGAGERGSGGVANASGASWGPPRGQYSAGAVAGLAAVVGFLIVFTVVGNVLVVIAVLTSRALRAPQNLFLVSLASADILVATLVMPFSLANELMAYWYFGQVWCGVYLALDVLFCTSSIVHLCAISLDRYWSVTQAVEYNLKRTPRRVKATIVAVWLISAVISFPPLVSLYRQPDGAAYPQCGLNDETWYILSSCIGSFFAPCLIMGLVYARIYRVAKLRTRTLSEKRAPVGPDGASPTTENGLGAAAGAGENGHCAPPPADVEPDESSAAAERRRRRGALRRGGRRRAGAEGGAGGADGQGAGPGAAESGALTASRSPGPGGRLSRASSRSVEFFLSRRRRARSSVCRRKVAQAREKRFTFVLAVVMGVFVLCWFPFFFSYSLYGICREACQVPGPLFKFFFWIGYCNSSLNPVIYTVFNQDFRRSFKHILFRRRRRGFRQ", "experiment": "RSAT assay, alpha 2C", "type": "cell-based", "settings": "for (rel. efficacy) Alpha 2C: ratio of maximal effect to standard full agonist brimonidine (UK14304)", "description": "(§1) Selected presently described compounds were synthesized and tested for alpha adrenergic activity using the Receptor Selection and Amplification Technology (RSAT) assay. Cells expressing each of the alpha-2-adrenergic receptors alone were incubated with various compounds and a receptor-mediated growth response was measured. The compound's activity is expressed as its relative efficacy compared to a standard full agonist.\n(§2) The RSAT assay measures a receptor-mediated loss of contact inhibition that results in selective proliferation of receptor-containing cells in a mixed population of confluent cells. The increase in cell number is assessed with an appropriate transfected marker gene such as β-galactosidase, the activity of which can be easily measured in a 96-well format. Receptors that activate the G protein, Gq, elicit this response. Alpha2 receptors, which normally couple to Gi, activate the RSAT response when coexpressed with a hybrid Gq protein that has a Gi receptor recognition domain, called Gq/i5.\n(§3) NIH-3T3 cells are plated at a density of 2×10^6 cells in 15 cm dishes and maintained in Dulbecco's modified Eagle's medium supplemented with 10% calf serum. One day later, cells are cotransfected by calcium phosphate precipitation with mammalian expression plasmids encoding p-SV-β-galactosidase (5-10 μg), receptor (1-2 μg) and G protein (1-2 μg). 40 μg salmon sperm DNA may also be included in the transfection mixture. Fresh media is added on the following day and 1-2 days later, cells are harvested and frozen in 50 assay aliquots. Cells are thawed and […] added to […] aliquots of various concentrations of drugs in triplicate in 96-well dishes. Incubations continue 72-96 hr at 37° C. After washing with phosphatebuffered saline, β-galactosidase enzyme activity is determined by adding 200 μl of the chromogenic substrate (consisting of 3.5 mM o-nitrophenyl-β-D-galactopyranoside and 0.5% nonidet P-40 in phosphate buffered saline), incubating overnight at 30° C. and measuring optical density at 420 nm. The absorbance is a measure of enzyme activity, which depends on cell number and reflects a receptor-mediated cell proliferation. The EC50 and maximal effect of each drug at each alpha2 receptor is determined. The efficacy or intrinsic activity is calculated as a ratio of the maximal effect of the drug to the maximal effect of a standard full agonist for each receptor subtype. Brimonidine, also called UK14304, is used as the standard agonist for the alpha2A, alpha2B, and alpha2C receptors.\n(§4) The compounds activity is expressed as its relative efficacy compared to a standard full agonist."}, "alpha2B receptor": {"molecular_target": "T2, alpha2B receptor (Homo sapiens, UniProt P18089)", "T2 construct": "expressed in transfected cells; host or cells: NIH-3T3", "T2 sequence (P18089 1-450)": "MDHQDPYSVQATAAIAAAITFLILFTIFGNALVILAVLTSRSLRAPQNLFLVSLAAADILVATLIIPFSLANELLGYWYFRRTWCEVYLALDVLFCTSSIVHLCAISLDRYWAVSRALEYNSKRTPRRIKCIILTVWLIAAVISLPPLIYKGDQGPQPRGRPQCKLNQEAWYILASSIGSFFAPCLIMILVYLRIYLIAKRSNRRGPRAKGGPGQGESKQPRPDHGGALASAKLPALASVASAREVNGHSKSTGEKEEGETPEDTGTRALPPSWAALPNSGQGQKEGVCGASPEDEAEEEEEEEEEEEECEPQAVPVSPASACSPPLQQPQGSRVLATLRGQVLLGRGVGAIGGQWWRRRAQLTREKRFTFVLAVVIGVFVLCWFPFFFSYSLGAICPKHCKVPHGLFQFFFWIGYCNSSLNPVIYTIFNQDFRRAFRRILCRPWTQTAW", "experiment": "RSAT assay, alpha 2B", "type": "cell-based", "settings": "for (rel. efficacy) Alpha 2B: RSAT, ratio of maximal effect to standard full agonist brimonidine (UK14304)", "description": "as §1, §2, §3, §4"}, "alpha2A receptor": {"molecular_target": "T3, alpha2A receptor (Homo sapiens, UniProt P08913)", "T3 sequence (P08913 1-465)": "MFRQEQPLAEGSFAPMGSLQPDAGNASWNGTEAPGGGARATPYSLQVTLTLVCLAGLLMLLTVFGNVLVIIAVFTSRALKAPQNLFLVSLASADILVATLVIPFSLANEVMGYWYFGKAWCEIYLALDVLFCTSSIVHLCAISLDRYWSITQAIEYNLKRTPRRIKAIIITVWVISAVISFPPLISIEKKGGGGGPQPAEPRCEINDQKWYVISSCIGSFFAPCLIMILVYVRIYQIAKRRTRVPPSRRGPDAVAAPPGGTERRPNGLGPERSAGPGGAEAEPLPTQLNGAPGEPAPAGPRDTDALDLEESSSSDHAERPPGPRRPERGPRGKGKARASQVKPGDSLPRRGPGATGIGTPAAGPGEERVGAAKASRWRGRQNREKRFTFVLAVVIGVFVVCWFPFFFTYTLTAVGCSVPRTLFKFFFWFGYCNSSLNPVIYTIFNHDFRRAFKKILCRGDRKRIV", "experiment": "RSAT assay, alpha 2A", "type": "cell-based", "settings": "for (rel. efficacy) Alpha 2A: ratio of maximal effect to standard full agonist brimonidine (UK14304)", "description": "as §1, §2, §3, §4"}, "[4]": {"settings": "RSAT, NIH-3T3 cells, NA = not active, read-out: EC50 (nM) Alpha 2C"}},
  "note": "Read-outs that look alike come from different tables or passages of the source.",
  "data": [
    {"smiles": "Fc1c(Cl)cccc1CNC1=NCCO1", "note": "[N-(3-chloro-2-fluorobenzyl)-4,5-dihydrooxazol-2-amine]", "values": [
      {"measurement": "neuropathy of the patient", "setting": "[1]", "value": "reduction neuropathy"},
      {"measurement": "intraocular pressure of the patient", "setting": "[2]", "value": "normal intraocular pressure"},
      {"measurement": "patient-reported pain", "setting": "[3]", "value": "reduction of pain"}
    ]},
    {"smiles": "COc1ccccc1CNC1=NCCO1", "note": "[N-(2-methoxybenzyl)-4,5-dihydrooxazol-2-amine]", "values": [
      {"measurement": "neuropathy of the patient", "setting": "[1]", "value": "reduction neuropathy"},
      {"measurement": "intraocular pressure of the patient", "setting": "[2]", "value": "normal intraocular pressure"},
      {"measurement": "patient-reported pain", "setting": "[3]", "value": "reduction of pain"}
    ]},
    {"smiles": "Clc1c(Br)cccc1CNC1=NCCS1", "values": [
      {"measurement": "EC50", "setting": "alpha2C receptor; [4]", "value": 198, "unit": "nM"},
      {"measurement": "(rel. efficacy) Alpha 2C", "setting": "alpha2C receptor; RSAT", "value": 0.98},
      {"measurement": "EC50", "setting": "alpha2B receptor", "value": 0.018, "unit": "µM"},
      {"measurement": "(rel. efficacy) Alpha 2B", "setting": "alpha2B receptor", "value": 1.01},
      {"measurement": "EC50", "setting": "alpha2A receptor", "value": "> 3000", "unit": "nM"},
      {"measurement": "(rel. efficacy) Alpha 2A", "setting": "alpha2A receptor; RSAT", "value": 0.4}
    ]},
    {"smiles": "COc1ccccc1CNC1=NCCS1", "note": "[N-(2-methoxybenzyl)-4,5-dihydrothiazol-2-amine]", "values": [
      {"measurement": "neuropathy of the patient", "setting": "[1]", "value": "reduction neuropathy"},
      {"measurement": "intraocular pressure of the patient", "setting": "[2]", "value": "normal intraocular pressure"},
      {"measurement": "patient-reported pain", "setting": "[3]", "value": "reduction of pain"}
    ]},
    {"smiles": "Fc1c(Br)cccc1CNC1=NCCS1", "values": [
      {"measurement": "EC50", "setting": "alpha2C receptor", "value": 182, "unit": "nM"},
      {"measurement": "(rel. efficacy) Alpha 2C", "setting": "alpha2C receptor; RSAT", "value": 0.64},
      {"measurement": "EC50", "setting": "alpha2B receptor", "value": 0.034, "unit": "µM"},
      {"measurement": "(rel. efficacy) Alpha 2B", "setting": "alpha2B receptor", "value": 0.98},
      {"measurement": "EC50", "setting": "alpha2A receptor", "value": 1380, "unit": "nM"},
      {"measurement": "(rel. efficacy) Alpha 2A", "setting": "alpha2A receptor; RSAT", "value": 0.44}
    ]},
    {"smiles": "COc1c(Br)cccc1CNC1=NCCS1", "values": [
      {"measurement": "EC50", "setting": "alpha2C receptor; [4]", "value": 109, "unit": "nM"},
      {"measurement": "(rel. efficacy) Alpha 2C", "setting": "alpha2C receptor; RSAT", "value": 0.81},
      {"measurement": "EC50", "setting": "alpha2B receptor", "value": 0.031, "unit": "µM"},
      {"measurement": "(rel. efficacy) Alpha 2B", "setting": "alpha2B receptor", "value": 1.1},
      {"measurement": "EC50", "setting": "alpha2A receptor; RSAT, NIH-3T3 cells, NA = not active, read-out: EC50 (nM) Alpha 2A", "value": 621, "unit": "nM"},
      {"measurement": "(rel. efficacy) Alpha 2A", "setting": "alpha2A receptor; RSAT", "value": 0.55}
    ]},
    {"smiles": "COc1c(Cl)cccc1CNC1=NCCS1", "values": [
      {"measurement": "EC50", "setting": "alpha2C receptor", "value": 99, "unit": "nM"},
      {"measurement": "(rel. efficacy) Alpha 2C", "setting": "alpha2C receptor; RSAT", "value": 0.73},
      {"measurement": "EC50", "setting": "alpha2B receptor", "value": 0.022, "unit": "µM"},
      {"measurement": "(rel. efficacy) Alpha 2B", "setting": "alpha2B receptor", "value": 1.08},
      {"measurement": "EC50", "setting": "alpha2A receptor", "value": 701, "unit": "nM"},
      {"measurement": "(rel. efficacy) Alpha 2A", "setting": "alpha2A receptor; RSAT", "value": 0.38}
    ]}
  ]
}
